Measured values as given in PubChem BioAssay (NCI).
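All cell lines were grown in 96-well plates and treated with compound for 48 hours. Here, GI50 denotes the concentration required for 50% inhibition of growth. At the TGI there is no net growth.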

What was measured:
Assay in all cases: NCI tumour cell line growth inhibition, 48 h
786-0 renal = system: 786-0 renal
A498 renal = system: A498 renal
A549 NSCLC = system: A549 NSCLC
ACHN renal = system: ACHN renal
BT-549 breast = system: BT-549 breast
CAKI-1 renal = system: CAKI-1 renal
CCRF-CEM leukemia = system: CCRF-CEM leukemia
COLO 205 colon = system: COLO 205 colon
DU-145 prostate = system: DU-145 prostate
EKVX NSCLC = system: EKVX NSCLC
HCC-2998 colon = system: HCC-2998 colon
HCT-116 colon = system: HCT-116 colon
HCT-15 colon = system: HCT-15 colon
HL-60(TB) leukemia = system: HL-60(TB) leukemia
HOP-62 NSCLC = system: HOP-62 NSCLC
HOP-92 NSCLC = system: HOP-92 NSCLC
HS 578T breast = system: HS 578T breast
HT29 colon = system: HT29 colon
IGROV1 ovarian = system: IGROV1 ovarian
K-562 leukemia = system: K-562 leukemia
KM12 colon = system: KM12 colon
LOX IMVI melanoma = system: LOX IMVI melanoma
M14 melanoma = system: M14 melanoma
MALME-3M melanoma = system: MALME-3M melanoma
MCF7 breast = system: MCF7 breast
MDA-MB-231 breast = system: MDA-MB-231 breast
MDA-MB-435 = system: MDA-MB-435
MOLT-4 leukemia = system: MOLT-4 leukemia
NCI-H226 lung = system: NCI-H226 lung
NCI-H23 lung = system: NCI-H23 lung
NCI-H460 lung = system: NCI-H460 lung
NCI-H522 lung = system: NCI-H522 lung
NCI/ADR-RES ovarian = system: NCI/ADR-RES ovarian
OVCAR-3 ovarian = system: OVCAR-3 ovarian
OVCAR-4 ovarian = system: OVCAR-4 ovarian
OVCAR-5 ovarian = system: OVCAR-5 ovarian
OVCAR-8 ovarian = system: OVCAR-8 ovarian
PC-3 prostate = system: PC-3 prostate
RPMI-8226 leukemia = system: RPMI-8226 leukemia
RXF 393 renal = system: RXF 393 renal
SF-268 CNS = system: SF-268 CNS
SF-295 CNS = system: SF-295 CNS
SF-539 CNS = system: SF-539 CNS
SK-MEL-2 melanoma = system: SK-MEL-2 melanoma
SK-MEL-28 melanoma = system: SK-MEL-28 melanoma
SK-MEL-5 melanoma = system: SK-MEL-5 melanoma
SK-OV-3 ovarian = system: SK-OV-3 ovarian
SN12C renal = system: SN12C renal
SNB-19 CNS = system: SNB-19 CNS
SNB-75 CNS = system: SNB-75 CNS
SR leukemia = system: SR leukemia
SW-620 colon = system: SW-620 colon
T-47D breast = system: T-47D breast
TK-10 renal = system: TK-10 renal
U251 CNS = system: U251 CNS
UACC-257 melanoma = system: UACC-257 melanoma
UACC-62 melanoma = system: UACC-62 melanoma
UO-31 renal = system: UO-31 renal

O=C(Nc1nc2ccc(F)cc2s1)c1cccnc1Nc1ccc(Cl)cc1
GI50 (786-0 renal): 2.93 µM
TGI (786-0 renal): > 100 µM
GI50 (A498 renal): 1.8 µM
TGI (A498 renal): 5.46 µM
GI50 (A549 NSCLC): 3.35 µM
TGI (A549 NSCLC): > 33.7 µM
GI50 (ACHN renal): 3.08 µM
TGI (ACHN renal): > 100 µM
GI50 (BT-549 breast): 2.77 µM
TGI (BT-549 breast): > 29.3 µM
GI50 (CAKI-1 renal): 2.56 µM
TGI (CAKI-1 renal): > 30.8 µM
GI50 (CCRF-CEM leukemia): 1.54 µM
TGI (CCRF-CEM leukemia): > 100 µM
GI50 (COLO 205 colon): 1.72 µM
TGI (COLO 205 colon): 3.48 µM
GI50 (DU-145 prostate): 3.76 µM
TGI (DU-145 prostate): > 100 µM
GI50 (EKVX NSCLC): 2.45 µM
TGI (EKVX NSCLC): > 82.6 µM
GI50 (HCC-2998 colon): 2.73 µM
TGI (HCC-2998 colon): > 100 µM
GI50 (HCT-116 colon): 1.99 µM
TGI (HCT-116 colon): > 29.2 µM
GI50 (HCT-15 colon): 2.74 µM
TGI (HCT-15 colon): > 100 µM
GI50 (HL-60(TB) leukemia): 1.6 µM
TGI (HL-60(TB) leukemia): 5.8 µM
GI50 (HOP-62 NSCLC): 2.55 µM
TGI (HOP-62 NSCLC): 9.08 µM
GI50 (HOP-92 NSCLC): 0.575 µM
TGI (HOP-92 NSCLC): 3.34 µM
GI50 (HS 578T breast): 2.1 µM
TGI (HS 578T breast): 7.54 µM
GI50 (HT29 colon): 3.1 µM
TGI (HT29 colon): > 100 µM
GI50 (IGROV1 ovarian): 2.6 µM
TGI (IGROV1 ovarian): > 34.1 µM
GI50 (K-562 leukemia): 0.961 µM
TGI (K-562 leukemia): > 100 µM
GI50 (KM12 colon): 2.61 µM
TGI (KM12 colon): 8.54 µM
GI50 (LOX IMVI melanoma): 2.66 µM
TGI (LOX IMVI melanoma): > 28.8 µM
GI50 (M14 melanoma): 2.94 µM
TGI (M14 melanoma): > 100 µM
GI50 (MALME-3M melanoma): 2.22 µM
TGI (MALME-3M melanoma): > 27 µM
GI50 (MCF7 breast): 2.32 µM
TGI (MCF7 breast): > 100 µM
GI50 (MDA-MB-231 breast): 1.88 µM
TGI (MDA-MB-231 breast): 5 µM
GI50 (MDA-MB-435): 3.11 µM
TGI (MDA-MB-435): > 100 µM
GI50 (MOLT-4 leukemia): 2.47 µM
TGI (MOLT-4 leukemia): > 27 µM
GI50 (NCI-H226 lung): 2.97 µM
TGI (NCI-H226 lung): > 100 µM
GI50 (NCI-H23 lung): 1.67 µM
TGI (NCI-H23 lung): 8.38 µM
GI50 (NCI-H460 lung): 2.22 µM
TGI (NCI-H460 lung): > 100 µM
GI50 (NCI-H522 lung): 2.17 µM
TGI (NCI-H522 lung): > 24.2 µM
GI50 (NCI/ADR-RES ovarian): 2.36 µM
TGI (NCI/ADR-RES ovarian): > 28.1 µM
GI50 (OVCAR-3 ovarian): 2.11 µM
TGI (OVCAR-3 ovarian): 9.57 µM
GI50 (OVCAR-4 ovarian): 2.99 µM
TGI (OVCAR-4 ovarian): > 100 µM
GI50 (OVCAR-5 ovarian): 2.64 µM
TGI (OVCAR-5 ovarian): > 61.1 µM
GI50 (OVCAR-8 ovarian): 6.26 µM
TGI (OVCAR-8 ovarian): > 100 µM
GI50 (PC-3 prostate): 1.93 µM
TGI (PC-3 prostate): > 27.4 µM
GI50 (RPMI-8226 leukemia): 1.24 µM
TGI (RPMI-8226 leukemia): 7.47 µM
GI50 (RXF 393 renal): 33.6 µM
TGI (RXF 393 renal): > 100 µM
GI50 (SF-268 CNS): 3.68 µM
TGI (SF-268 CNS): > 100 µM
GI50 (SF-295 CNS): 1.98 µM
TGI (SF-295 CNS): 7.83 µM
GI50 (SF-539 CNS): 2.89 µM
TGI (SF-539 CNS): > 27.9 µM
GI50 (SK-MEL-2 melanoma): 2.11 µM
TGI (SK-MEL-2 melanoma): 6.45 µM
GI50 (SK-MEL-28 melanoma): 3.47 µM
TGI (SK-MEL-28 melanoma): > 79.3 µM
GI50 (SK-MEL-5 melanoma): 1.39 µM
TGI (SK-MEL-5 melanoma): 3.38 µM
GI50 (SK-OV-3 ovarian): 2.49 µM
TGI (SK-OV-3 ovarian): > 26.5 µM
GI50 (SN12C renal): 2.63 µM
TGI (SN12C renal): > 100 µM
GI50 (SNB-19 CNS): 3.83 µM
TGI (SNB-19 CNS): > 100 µM
GI50 (SNB-75 CNS): 2.36 µM
TGI (SNB-75 CNS): 16.1 µM
GI50 (SR leukemia): 2.28 µM
TGI (SR leukemia): 9.31 µM
GI50 (SW-620 colon): 3.04 µM
TGI (SW-620 colon): > 100 µM
GI50 (T-47D breast): 1.04 µM
TGI (T-47D breast): > 29.2 µM
GI50 (TK-10 renal): 5.11 µM
TGI (TK-10 renal): > 100 µM
GI50 (U251 CNS): 2.88 µM
TGI (U251 CNS): > 100 µM
GI50 (UACC-257 melanoma): 0.677 µM
GI50 (UACC-62 melanoma): 2.47 µM
TGI (UACC-62 melanoma): > 100 µM
GI50 (UO-31 renal): 2.36 µM
TGI (UO-31 renal): > 21.5 µM
